Reference: ChEMBL document CHEMBL2034878, “Chiral resolution, absolute configuration assignment and biological activity of racemic diarylpyrimidine CH(OH)-DAPY as potent nonnucleoside HIV-1 reverse transcriptase inhibitors” (Eur J Med Chem, 2012)

system: Human immunodeficiency virus 1; assay: Antiviral activity against HIV1 RES056 harboring K103N/Y181C RT mutant infected in MT4 cells assessed as inhibition of virus-induced cytopathic effect after 5 days by MTT assay; assay type: functional, organism-based; settings: Human immunodeficiency virus 1, RES056, MT4, 120 h

Compared with N#Cc1ccc(Nc2nccc([C@H](O)c3ccccc3Cl)n2)cc1, N#Cc1ccc(Nc2nccc([C@@H](O)c3ccccc3Cl)n2)cc1 is lower in EC50: > 36 µM for the first, 8.8 µM for the second.

CC(C)Nc1cccnc1N1CCN(C(=O)c2cc3cc(NS(C)(=O)=O)ccc3[nH]2)CC1 [DELAVIRDINE] and N#Cc1ccc(Nc2nccc(C(O)c3ccccc3Cl)n2)cc1 (racemic) cannot be ordered by EC50: > 4.39 µM for the first, 9.4 µM for the second.

For O=C1Nc2ccc(Cl)cc2[C@@](C#CC2CC2)(C(F)(F)F)O1 [EFAVIRENZ], the EC50 was 0.44 µM.

system: Human immunodeficiency virus 1; assay: Antiviral activity against HIV1 3B harboring wild type RT infected in MT4 cells assessed as inhibition of virus-induced cytopathic effect after 5 days by MTT assay; assay type: functional, organism-based; settings: Human immunodeficiency virus 1, 3B, MT4, 120 h

Going from N#Cc1ccc(Nc2nccc([C@H](O)c3ccccc3Cl)n2)cc1 to N#Cc1ccc(Nc2nccc([C@@H](O)c3ccccc3Cl)n2)cc1, the EC50 rises from 0.005 µM to 0.065 µM (13-fold). The first is the more potent here.

Cc1cc(C#N)cc(C)c1Oc1nc(Nc2ccc(C#N)cc2)nc(N)c1Br [ETRAVIRINE] gave an EC50 of 0.002 µM.

system: Human immunodeficiency virus 2; assay: Antiviral activity against HIV2 ROD […] infected in MT4 cells assessed as inhibition of virus-induced cytopathic effect after 5 days by MTT assay; assay type: functional, organism-based; settings: Human immunodeficiency virus 2, ISOLATE ROD, MT4, 120 h

First: N#Cc1ccc(Nc2nccc([C@H](O)c3ccccc3Cl)n2)cc1
Second: N#Cc1ccc(Nc2nccc([C@@H](O)c3ccccc3Cl)n2)cc1
The EC50 of the first is higher: > 36 µM for the first, 11 µM for the second. The second is the more potent here.

Going from Cc1ccnc2c1NC(=O)c1cccnc1N2C1CC1 [NEVIRAPINE] to N#Cc1ccc(Nc2nccc(C(O)c3ccccc3Cl)n2)cc1 (racemic), the EC50 falls from > 15 µM to 7.6 µM.

Compared with Cc1cn([C@H]2C[C@H](N=[N+]=[N-])[C@@H](CO)O2)c(=O)[nH]c1=O [ZIDOVUDINE], Cc1cc(C#N)cc(C)c1Oc1nc(Nc2ccc(C#N)cc2)nc(N)c1Br [ETRAVIRINE] is higher in EC50: 0.007 µM for the first, > 28 µM for the second.

system: not listed separately; assay: Selectivity index ratio of CC50 for human MT4 cells to EC50 for HIV1 3B; assay type: toxicity, cell-based; settings: read-out: Ratio CC50/EC50

Going from N#Cc1ccc(Nc2nccc([C@H](O)c3ccccc3Cl)n2)cc1 to N#Cc1ccc(Nc2nccc([C@@H](O)c3ccccc3Cl)n2)cc1, the selectivity ratio falls from 6800 to 373.

CC(C)Nc1cccnc1N1CCN(C(=O)c2cc3cc(NS(C)(=O)=O)ccc3[nH]2)CC1 [DELAVIRDINE] and N#Cc1ccc(Nc2nccc(C(O)c3ccccc3Cl)n2)cc1 (racemic) cannot be ordered by selectivity ratio: > 274 for the first, 3230 for the second.

For Cc1cn([C@H]2C[C@H](N=[N+]=[N-])[C@@H](CO)O2)c(=O)[nH]c1=O [ZIDOVUDINE], the selectivity ratio was ≥ 6360.

biological target: Human immunodeficiency virus type 1 reverse transcriptase (Human immunodeficiency virus 1, UniProt Q72547); assay: Inhibition of HIV1 wildtype reverse transcriptase using poly(rA)/oligo(dT)15 as template by colometric streptavidin alkaline phosphate reporter assay; settings: not given

N#Cc1ccc(Nc2nccc(C(O)c3ccccc3Cl)n2)cc1 (racemic) showed an IC50 of 0.45 µM.

system: not listed separately; assay: Cytotoxicity against human MT4 cells after 5 days by MTT assay; assay type: cell-based; settings: not given

N#Cc1ccc(Nc2nccc([C@H](O)c3ccccc3Cl)n2)cc1 and N#Cc1ccc(Nc2nccc([C@@H](O)c3ccccc3Cl)n2)cc1 are within 1.5-fold of each other in CC50 at 120 h: 36 µM for the first, 25 µM for the second.

CC(C)Nc1cccnc1N1CCN(C(=O)c2cc3cc(NS(C)(=O)=O)ccc3[nH]2)CC1 [DELAVIRDINE] and Cc1ccnc2c1NC(=O)c1cccnc1N2C1CC1 [NEVIRAPINE] cannot be ordered by CC50 at 120 h: > 4.4 µM for the first, > 15 µM for the second.

O=C1Nc2ccc(Cl)cc2[C@@](C#CC2CC2)(C(F)(F)F)O1 [EFAVIRENZ] and N#Cc1ccc(Nc2nccc(C(O)c3ccccc3Cl)n2)cc1 (racemic) cannot be ordered by CC50 at 120 h: > 6.3 µM for the first, 29 µM for the second.

First: Cc1cn([C@H]2C[C@H](N=[N+]=[N-])[C@@H](CO)O2)c(=O)[nH]c1=O [ZIDOVUDINE]
Second: Cc1cc(C#N)cc(C)c1Oc1nc(Nc2ccc(C#N)cc2)nc(N)c1Br [ETRAVIRINE]
The CC50 at 120 h of the first is higher: ≥ 46 µM for the first, 28 µM for the second.
